According to US5744621A, “Irreversible HIV protease inhibitors, intermediates, compositions and processes for the preparation thereof” (Lucky Limited., priority 1992, dated 1998):
Where two headings read alike, the source gives them in different places.

Tests used:
HIV-1 = assay: Anti-viral activity: syncytium formation (Sup T1) or reverse transcriptase assay (H9); format: cell-based; conditions: Human immunodeficiency virus 1, SUP-T1
Protocol: The anti-viral activity of the compounds of the present invention was determined by measuring the concentration of the compounds that inhibits the proliferation of HIV by 50%(IC50) through a survey for syncytium formation or reverse transcriptase assay.
1×10^5 cells of each of H9(ATCC HTB 176) and Sup T1 cell lines were added to the wells of a 24-well microtiter plate and various concentrations so the compounds of the present invention were added thereto. 200 TCID50 (200-fold of 50% tissue culture infection dose) of HIV-1 inoculum and rpmi-1640 medium(Sigma Chemical Co., U.S.A) were added successively to the wells and the plate was incubated at 37° C. In case of Sup T1, the number of syncytium formed was investigated after 3 to 9 days. IC50 of each compound was determined by measuring the concentration of inhibitor that can reduce the number of syncytium by 50% compared with those formed in the same condition without the inhibitor.
In case of H9, three-quarters(3/4) of the culture medium in volume was refreshed every 3 days; and 6 ml of the culture fluid was centrifuged at 1000 rpm for 10 minutes. To 5 ml of the resulting supernatant were added 2.5 ml of 30% polyethyleneglycol(PEG, M.W. 6000-8000) and 0.4M NaCl. The resulting solution was allowed to stand at 0° C. overnight to precipitate virus particles. The solution was centrifuged at 2000 rpm for 45 minutes, the supernatant was discarded therefrom and the precipitate was diluted with 20 μl of a reverse transcriptase suspension buffer(50 mM tris-HCl, pH 7.5, 1 mM dithiothreitol, 20% glycerol, 0.25M KCl and 0.25% Triton X-100). The resulting suspension was stored in an Effendorf tube at -70° C. until used. A procedure of freezing said virus suspension for 2 minutes in dry ice and thawing same at 37° C. for 2 minutes was repeated three times and the resulting suspension was centrifuged at 4° C. The resulting supernatant was used in carrying out the reverse transcriptase assay.
10 μl of the said viral suspension was added to a solution of: 10 μl of buffer solution(250 mM tris-HCl, pH 7.5, 37.5 mM MgCl2, 0.25% triton X-100), 1.2 μl of 200 mM dithiothreitol, 5 μl of 10 μM oligo(dT)-poly(A)(Boeringer Manheim, 12-18 oligomer), 1 μl(1 μCi) of ^3 H-TTP(Thymidinetri-phosphate) and 23.6 μl of water; and the resulting mixture was placed at 37° C. After 1 hour, the mixture was poured onto a WHATMAN DEB1 filter and the filter was washed three times with 5 ml of 2×SSC buffer solution(17.53 g of sodium chloride, 8.82 g of sodium citrate, pH 7.0, 1 liter of water) for about 10 minutes each time and twice with 95% ethanol for 10 seconds. The filter was put onto aluminium foil and dried with an infra-red lamp. The amount of radioactivity was counted using a liquid scintillation counter. IC50 of each compound was determined by measuring the concentration of inhibitor that can reduce the activity of reverse transcriptase by 50%.

[1] = Cytotoxicity in H9 or Sup T1 cells (trypan blue dye exclusion); format: cell-based; conditions: human
Protocol: To determine the cytotoxicity of the compounds of the present invention, 0.1 μM to 100 μM of the novel compounds were added to H9 cell or Sup T1 cell and the mixture was cultured on a rpmi-1640 medium at 37° C. The medium was refreshed every 3 days and the extent of cell proliferation was observed using Hemacytometer according to the trypan blue dye exclusion technique which is well known in the art. CT50 (i.e., concentration that causes death of cells by 50%) was determined. For reference, AZT(Burrows-Wellcome), A-75925 (Abbott, C2 symmetric compound) and Ro-31-8959(F. Hofmann-La Roche) were used as control compounds.

HIV-1 protease = molecular target: T1, HIV-1 protease (Human immunodeficiency virus type 1 group M subtype B, UniProt P04585); assay: Assay for inhibitory effect on HIV protease (residual enzyme activity, HPLC of substrate cleavage); format: biochemical
T1 construct: 2.6 nM of HIV-1 protease
Outline: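 HIV-1 protease (2.6 nM) incubated with inhibitor in 50 mM sodium acetate pH 5.5, 1 mM DTT, 1 mM EDTA, 0.75 M ammonium sulfate, 0.2 M NaCl, 0.1% NP40. Residual activity was sampled over time using 100 μM p-NO2-Phe undecapeptide substrate (KM 20 μM), HPLC, 280 nm. kobs came from ln(activity)-versus-time slope, and KI and kina from kinetic fitting.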

[2] = concentration that causes death of cells by 50%, H9 or Sup T1 cells, 37° C, read-out: CT50 (the source's name)
[3] = HIV-1 protease 2.6 nM, pH 5.5, inhibition constant
[4] = HIV-1 protease 2.6 nM, pH 5.5, rate constant of covalent bond formation, read-out: kina (converted)
[5] = second order rate constant, HIV-1 protease, pH 5.5, read-out: kina /KI (converted)

Structure (SMILES) | IC50 (HIV-1) [µM] | CC50 [1, 2] [µM] | Ki (HIV-1 protease; [3]) [µM] | kinact (HIV-1 protease; [4]) [s⁻¹] | kinact/KI (HIV-1 protease; [5]) [M⁻¹ s⁻¹] | Ki (HIV-1 protease) [µM] | kinact (HIV-1 protease; pH 5.5, read-out: kina) [s⁻¹] | kinact/KI (HIV-1 protease; pH 5.5, read-out: kina /KI) [M⁻¹ s⁻¹] | CC50 ([1]; h9 or sup t1 cells) [µM]
CC(C)[C@H](NC(=O)C[C@@H]1O[C@@H]1[C@H](Cc1ccccc1)NC(=O)[C@H](CC(N)=O)NC(=O)c1ccc2ccccc2n1)c1ccccc1 [compound 47] | 0.07 | > 100 | 0.012 | 0.0383 | 3.17e+06 |  |  |  | 
CC(C)C(Cc1ccccc1)NC(=O)C[C@@H]1O[C@@H]1[C@H](Cc1ccccc1)NC(=O)[C@H](CC(N)=O)NC(=O)c1ccc2ccccc2n1 (stereo partly drawn) [compound 48] | 0.5 | ~5 | 0.6 | 0.035 | 58300 |  |  |  | 
CC(C)[C@@H](CCc1ccccc1)NC(=O)C[C@@H]1O[C@@H]1[C@H](Cc1ccccc1)NC(=O)[C@H](CC(N)=O)NC(=O)c1ccc2ccccc2n1 [compound 49] | > 5 | > 100 | 0.8 | 0.03 | 38300 |  |  |  | 
CC(C)[C@@H](CCCc1ccccc1)NC(=O)C[C@@H]1O[C@@H]1[C@H](Cc1ccccc1)NC(=O)[C@H](CC(N)=O)NC(=O)c1ccc2ccccc2n1 [compound 50] | > 5 | > 100 | 0.95 | 0.025 | 26700 |  |  |  | 
NC(=O)C[C@H](NC(=O)OCc1ccccc1)C(=O)N[C@@H](Cc1ccccc1)[C@H]1O[C@H]1CCc1ccccc1 [compound 52, 2-L-(N-benzyloxycarbonyl-L-asparaginyl)amino-(3R,4S)-epoxy-1,6-diphenylhexane] | 0.7 to 1.2 | > 100 | 0.1 | 0.0005 | 5000 |  |  |  | 
CC(C)[C@H](NC(=O)OCc1ccccc1)C(=O)N[C@@H](Cc1ccccc1)[C@H]1O[C@H]1CCc1ccccc1 [compound 53, 2-L-(N-benzyloxycarbonyl-L-valinyl)amino-(3R,4S)-epoxy-1,6-diphenylhexane] | 1 to 1.5 | > 100 | 0.091 | 0.0015 | 16500 |  |  |  | 
NC(=O)C[C@H](NC(=O)COc1cccc2ccccc12)C(=O)N[C@@H](Cc1ccccc1)[C@H]1O[C@H]1CCc1ccccc1 [compound 61, 2-L-(N-1-naphthoxyacetyl-L-asparaginyl)amino-(3R,4S)-epoxy-1,6-diphenylhexane] | 1 to 2 | > 100 | 0.25 | 0.0005 | 2000 |  |  |  | 
NC(=O)C[C@H](NC(=O)c1ccc2ccccc2n1)C(=O)N[C@@H](Cc1ccccc1)[C@H]1O[C@H]1CCc1ccccc1 [compound 62, 2-L-(N-2-quinolinecarbonyl-L-asparaginyl)amino-(3R,4S)-epoxy-1,6-diphenylhexane] | 0.2 to 0.7 | > 100 | 0.13 | 0.00183 | 14200 |  |  |  | 
NC(=O)C[C@H](NC(=O)c1cnc2ccccc2n1)C(=O)N[C@@H](Cc1ccccc1)[C@H]1O[C@H]1CCc1ccccc1 [compound 63, 2-L-(N-quinoxaline-2-ylcarbonyl-L-asparaginyl)amino-(3R,4S)-epoxy-1,6-diphenylhexane] | 1 to 2 | > 100 | 0.25 | 0.00483 | 20000 |  |  |  | 
CC(C)CC[C@@H]1O[C@@H]1[C@H](Cc1ccccc1)NC(=O)[C@H](CC(N)=O)NC(=O)c1ccc2ccccc2n1 [compound 70, 2-L-[N-(2-quinolinecarbonyl)-L-asparaginyl]amino-(3R,4S)-epoxy-7-methyl-1-phenyloctane] | 5 | > 100 | 0.31 | 0.002 | 6500 |  |  |  | 
CC(C)[C@H](NC(=O)OCc1ccccc1)C(=O)NC[C@@H]1O[C@@H]1[C@H](Cc1ccccc1)NC(=O)[C@@H](NC(=O)OCc1ccccc1)C(C)C [compound 71, 4S-1,4-bis[N-(N'-benzyloxycarbonyl-L-valinyl)amino]-5-phenyl-(2S,3R)-(Z)-epoxypentane] | 0.08 | > 100 |  |  |  | 0.00018 | 0.00233 | 1.28e+06 | 
NC(=O)C[C@H](NC(=O)OCc1ccccc1)C(=O)NC[C@@H]1O[C@@H]1[C@H](Cc1ccccc1)NC(=O)[C@H](CC(N)=O)NC(=O)OCc1ccccc1 [compound 72] | 0.5 |  | 0.11 | 0.00367 | 33300 |  |  |  | > 100
C[C@@H](O)[C@H](NC(=O)OCc1ccccc1)C(=O)NC[C@@H]1O[C@@H]1[C@H](Cc1ccccc1)NC(=O)[C@@H](NC(=O)OCc1ccccc1)[C@@H](C)O [compound 73] | 5 | > 100 | > 10 |  |  |  |  |  | 
CC(C)[C@H](NC(=O)OCc1ccccc1)C(=O)NC[C@@H]1O[C@@H]1[C@H](Cc1ccccc1)NC(=O)[C@H](CC(N)=O)NC(=O)OCc1ccccc1 [compound 75] | 1 | > 10 | > 10 |  |  |  |  |  | 
CC(C)[C@H](NC(=O)OCc1ccccc1)C(=O)N[C@@H](Cc1ccccc1)[C@H]1O[C@H]1CNC(=O)[C@H](CC(N)=O)NC(=O)OCc1ccccc1 [compound 76, 4S-[N^1-[(N-benzyloxycarbonyl-L-asparaginyl)amino]]-[N^4-[(N-benzyloxycarbonyl-L-valinyl)amino]]-5-phenyl-(2S,3R)-(Z)-epoxypentane] | 1 | > 100 | 2 | 0.000767 | 383 |  |  |  | 
CC(C)[C@H](NC(=O)OCc1ccccn1)C(=O)NC[C@@H]1O[C@@H]1[C@H](Cc1ccccc1)NC(=O)[C@@H](NC(=O)OCc1ccccn1)C(C)C [compound 77] | 1 | > 100 | 0.1 | 0.004 | 40000 |  |  |  | 
CC(C)[C@H](NC(=O)N(C)Cc1ccccn1)C(=O)NC[C@@H]1O[C@@H]1[C@H](Cc1ccccc1)NC(=O)[C@@H](NC(=O)N(C)Cc1ccccn1)C(C)C [compound 80] | 0.5 | > 100 | 0.15 | 0.00533 | 35000 |  |  |  | 
